Measurements published in US20100204161A1, “Substances and Pharmaceutical Compositions for the Inhibition of Glyoxalases and Their Use Against Bacteria” (BIOMAC PRIVATINSTITUT FUR MEDIZINISHE UND ZAHMEDIZ …, priority 2005, published 2010).

How the values were obtained:
[1] = molecular target: T1, yeast glyoxalase I (Saccharomyces cerevisiae, UniProt P50107); assay: Enzymatic activity of yeast glyoxalase I (formation of S-D-lactoyl-glutathione, 240 nm); assay type: biochemical; details: for Influence on the enzymatic activity of yeast glyoxalase I: increasing concentrations (0-30 mM in Example 5), FIG. 1-3
T1 construct: purchased Sigma G-4252
T1 sequence (P50107 1-326): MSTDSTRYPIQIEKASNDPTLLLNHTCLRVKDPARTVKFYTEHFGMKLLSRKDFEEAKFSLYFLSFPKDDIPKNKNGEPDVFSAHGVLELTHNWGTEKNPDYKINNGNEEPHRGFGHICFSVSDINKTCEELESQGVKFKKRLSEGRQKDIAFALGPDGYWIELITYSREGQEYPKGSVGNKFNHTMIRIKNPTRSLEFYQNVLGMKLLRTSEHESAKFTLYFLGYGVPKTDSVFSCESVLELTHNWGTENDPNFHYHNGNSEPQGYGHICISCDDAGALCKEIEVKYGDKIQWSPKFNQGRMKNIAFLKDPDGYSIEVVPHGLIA
Description: Measuring glyoxalase I (E.C.4.4.1.5, lactoyl-glutathione lyase Sigma, G-4252) was performed according to the instructions of McLellan and Thornalley (1989). The principle is based on measuring the initial rate of formation of S-D-lactoyl-glutathione from methylglyoxal (Sigma, MO252, 40%) and reduced L-glutathione (Aldrich, G-4251, >99%). The formation of the product is observed using the extinction coefficient e=2.86 mM-1 cm-1 at 240 nm. The measurement was performed in 50 mM sodium phosphate buffer, pH 7.0. For that purpose 2 mM methylglyoxal and 2 mM reduced glutathione were incubated for 2 minutes at 30° C. for the formation of the hemithioacetal. Thereafter 20 μl of a 1 to 1000 dilution of the glyoxalase I (Sigma, G-4252) was added to 1 ml of the measuring reagent to start the reaction.
Glyoxalase activity (IU) corresponds to the amount of enzyme forming 1 μmol of S-D-lactoyl-glutathione/min.
Determination of glyoxalase I activity was performed according to the general protocol as described above. The influence of ethyl pyruvate on enzyme activity was investigated by addition of increasing concentrations of EP (Sigma; no. E4, 780-8; lot. S18972-513) to the measuring reagent.
Determination of glyoxalase I activity was performed according to the general protocol as described above. The influence of compounds of the general formula (I), (II), and (III) on the activity of the enzyme was investigated by addition of increasing concentrations of these compounds to the preparation. The IC50-values were calculated from inhibition curves of each compound.
Determination of glyoxalase I activity was performed according to the general protocol as described above. The influence of 2-oxopropanethioic acid S-ethyl ester on the activity of the enzyme was investigated by addition of increasing concentrations of SE to the preparation for the measurement.
Determination of glyoxalase I activity was performed according to the general protocol as described above. The influence of effectors on the enzymatic activity was investigated by addition of increasing concentrations (0-30 mM) of EP (Sigma; no. E4, 780-8; lot. S18972-513) (triangle), BP (prepared according to the instructions of patent JP 11080089; 98%) (circle) and BL (Fluka, 69819; lot. 443090/1 21503090) (squares) to the measuring reagent (FIG. 3).

[2] = test system: primary human skin fibroblasts; assay: Vitality of primary human fibroblasts (dye exclusion count); assay type: cell-based; details: 1-50 mM, serum free medium, 24 hours; FIG. 7
Description: An identical number (10^4 cells per well) of primary human skin fibroblasts were inoculated in 24-well plates (Greiner, no. 662160) and were cultured in DMEM (Gibco; no. 41966-092) in the presence of 10% calf serum (Biochrom, S0113/5), 2 mM L-glutamine (Gibco; no. 25030-024), penicillin/streptomycin (100 units penicillin/ml; 100 μg streptomycin/ml, Gibco; no. 15140/122), 5 mg % ascorbic acid (Serva, no. 14030.02) at 37° C., 5% CO2 and 95% humidity. The primary human fibroblasts were prepared according to the instructions of Birkenmeier et al. (1998). After reaching 50% confluency the medium was by fresh serum free medium. Thereafter the following supplements were added to the cells: preparation 1 (equivalent volume of serum free (SF) medium, blank); preparation 2 (1 mM DEL or 1 mM LEL or 1 mM EP); preparation 3 (5 mM DEL or 5 mM LEL or 5 mM EP), preparation 4 (10 mM DEL or 10 mM LEL or 10 mM EP), preparation 5 (20 mM DEL or 20 mM LEL or 20 mM EP), preparation 6 (50 mM DEL or 50 mM LEL or 50 mM EP). The culture was continued at 37° C., 5% CO2 and 95% humidity for 24 hours. Thereafter the supernatants were removed and 100 μl of a 50% […] solution was added to the wells. After washing the cells with medium the unstained and stained cells were counted under the light optical microscope comprising a coordinate plane. Cells stained blue were assessed as avital, unstained cells as vital. The percentage of unstained cells of the total number of cells corresponds to the vitality of the cells.

[3] = test system: NAD-dependent lactate dehydrogenases; assay: Interconversion by NAD-dependent lactate dehydrogenases; assay type: in vitro ADME; details: inventors' own measurements
[4] = test system: biofilms (biofilm-forming microorganisms from pipe water); assay: Destruction of biofilms on contaminated silicone surfaces (colony forming units); assay type: cell-based; details: normalized to 1 cm2 inner tube surface
Description: Biofilms were allowed to generate in a silicon tube system according to Gebel et al. (2005). In short, pipe water from a public water distributor was used as the source of biofilm-forming microorganisms. Water flow was at about 20 l per hour through silicon tubes from two commercial suppliers with inner diameters of 4 mm for 30 days at 25° C. After that the tubes were emptied, sealed at both ends and treated on their outer surface with 0.2% peroxoacetic acid for 1 hour. Tubes were then rinsed with sterile water and afterwards cut into pieces of 5 cm length each using a sterile scalpel. Pieces obtained this way were then dipped into solutions which contained the substance to be tested or respective controls. 25 ml of the test solutions were used in closed Falcon tubes (50 ml). […] Tubes were opened over their full length with scissors and the material deposited at the original inner surfaces of the tubes homogenized in 10 ml of saline (9 g NaCl/l water). Dilutions were made (decimal steps to 10^4) and 0.1 ml of these solutions plated onto test agar plates (1 l contained 0.5 g yeast extract, 0.5 g peptone, 0.5 g casein hydrolysate, 0.5 g starch. 0.3 g potassium hydrogen phosphate, 24 mg magnesium sulphate, 0.3 g sodium pyruvate, 15 g agar). Plates were incubated for seven days at 20° C. Colonies which formed were counted on each plate independent of their appearance and color. […] Two dilutions must be consistent in colony numbers, taken into consideration the respective dilution factors. Numbers were normalized to 1 cm2 of the inner tube surface. Each substance was analysed in duplicates. Biofilms were treated with water (control), ethyl pyruvate […] Numbers are given for each of the different silicon tubes used.

SMILES: CCCCOC(=O)C(C)=O [Butyl pyruvate]
- Effect on yeast glyoxalase I compared with EP ([1]; 0-30 mM, FIG. 3): the effect of BP is stronger than the effect of EP
- Influence on the enzymatic activity of yeast glyoxalase I [1]: inhibit the activity of glyoxalase I in a concentration dependent manner

SMILES: CCOC(=O)[C@H](C)O [(−)-Ethyl L-Lactate]
- Effect on the vitality of primary human fibroblasts [2]: not toxic over the concentration range investigated

SMILES: CCCCOC(=O)C(C)O (stereo not drawn) [Butyl lactate]
- Transformation by NAD-dependent lactate dehydrogenases [3]: to a lesser degree than ethyl lactate, also be transformed

SMILES: CCOC(=O)[C@@H](C)O [(+)-Ethyl D-Lactate]
- Effect on the vitality of primary human fibroblasts [2]: not toxic over the concentration range investigated

SMILES: CCCCOC(=O)[C@H](C)O [(−)-Butyl L-Lactate]
- Influence on the enzymatic activity of yeast glyoxalase I [1]: does not influence the reaction of glyoxalase

SMILES: CCOC(C)=O [Ester control, ethyl acetate, reference compound]
- Colony forming units derivable from biofilms after treatment ([4]; 25 mM, 30 min, first silicon tube): 5.1 × 10^5 colony forming units
- Colony forming units derivable from biofilms after treatment ([4]; 25 mM, 30 min, second silicon tube): 6.5 × 10^5 colony forming units
- Colony forming units derivable from biofilms after treatment ([4]; 25 mM, 120 min, first silicon tube): 7.0 × 10^4 colony forming units
- Colony forming units derivable from biofilms after treatment ([4]; 25 mM, 120 min, second silicon tube): 1.1 × 10^5 colony forming units

SMILES: CC(=O)OO [Peroxo acetic acid, peroxoacetic acid, reference compound]
- Colony forming units derivable from biofilms after treatment ([4]; 0.1%, 30 min, first silicon tube): 8.2 × 10^3 colony forming units
- Colony forming units derivable from biofilms after treatment ([4]; 0.1%, 30 min, second silicon tube): 9.3 × 10^3 colony forming units
- Colony forming units derivable from biofilms after treatment ([4]; 0.1%, 120 min, first silicon tube): 3.1 × 10^3 colony forming units
- Colony forming units derivable from biofilms after treatment ([4]; 0.1%, 120 min, second silicon tube): 4.7 × 10^3 colony forming units

SMILES: CCSC(=O)C(C)=O [SE, 2-Oxopropanethioic acid S-ethyl ester]
- Influence on the enzymatic activity of yeast glyoxalase I [1]: inhibits the reaction of the glyoxalase I of yeast in a concentration dependent manner
